The term IC50 denotes the concentration that gives 50% inhibition.

We go through 23 compounds from US20080200454A1, “CARBON-LINKED TETRAHYDRO-PYRAZOLO-PYRIDINE MODULATORS OF CATHEPSIN S” (priority 2007, published 2008).

Read-outs that look alike come from different tables or passages of the source.

The assay addresses Recombinant human cathepsin S (CatS) (Homo sapiens, UniProt P25774). Kind of assay: Recombinant human cathepsin S (CatS) inhibition assay, fluorogenic substrate Z-Valine-Valine-Arginine-AMC.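 Note: Baculovirus-expressed CatS in pH 5.0 sodium acetate buffer with DTT and NaCl, fluorescence read each minute over 20 min, inhibition derived from rate slope.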

Recombinant human cathepsin S (CatS), sequence (P25774 115-331): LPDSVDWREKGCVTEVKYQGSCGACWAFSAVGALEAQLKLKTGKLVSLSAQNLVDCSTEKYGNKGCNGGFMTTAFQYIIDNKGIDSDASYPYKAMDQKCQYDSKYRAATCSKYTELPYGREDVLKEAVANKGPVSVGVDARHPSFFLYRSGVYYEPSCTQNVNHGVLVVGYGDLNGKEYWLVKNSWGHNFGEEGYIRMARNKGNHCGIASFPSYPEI
Procedure: Recombinant human cathepsin S (CatS) was expressed in the baculovirus system and purified in one step with a thiopropyl-sepharose column. 10-L yielded ˜700 mg of CatS and N-terminal sequencing confirmed identity. The assay is run in 150 mM sodium acetate pH 5.0 containing 1.5 mM DTT and 150 mM NaCl. […] Using 2 ng/well of CatS, the production of product is linear and yields-7-fold signal after 20 min with only 20% loss of substrate. Measurements are taken every min for 20 min. The rate is calculated from the slope of the increase in fluorescence and the percent inhibition is calculated from this.

In the case of `Cc1ccccc1S(=O)(=O)NCCCc1cc(-c2nn(CCCN3CCC(N4CCCC4=O)CC3)c3c2CN(S(C)(=O)=O)CC3)ccc1Cl` [Example 94, N-{3-[2-Chloro-5-(5-methanesulfonyl-1-{3-[4-(2-oxo-pyrrolidin-1-yl)-piperidin-1-yl]-propyl}-4,5,6,7-tetrahydro-1H-pyrazolo[4,3-c]pyridin-3-yl)-phenyl]-propyl}-2-methyl-benzenesulfonamide], the IC50 was 1100 nM.
Turning to `CS(=O)(=O)N1CCc2c(c(-c3ccc(Cl)c(C#Cc4ccc5c(c4)CCN(CC4CC4)C5)c3)nn2CCCN2CCOCC2)C1` [Example 505, 6-({2-Chloro-5-[5-(methylsulfonyl)-1-(3-morpholin-4-ylpropyl)-4,5,6,7-tetrahydro-1H-pyrazolo[4,3-c]pyridin-3-yl]phenyl}ethynyl)-2-(cyclopropylmethyl)-1,2,3,4-tetrahydroisoquinoline], the IC50 (CatS IC50) was found to be 630 nM.
On to `CS(=O)(=O)N1CCc2c(c(-c3ccc(Cl)c(C#Cc4ccc(CNCc5ccncc5)cc4)c3)nn2CCCN2CCOCC2)C1` [Example 405, 1-[4-({2-Chloro-5-[5-(methylsulfonyl)-1-(3-morpholin-4-ylpropyl)-4,5,6,7-tetrahydro-1H-pyrazolo[4,3-c]pyridin-3-yl]phenyl}ethynyl)phenyl]-N-(pyridin-4-ylmethyl)methanamine], for which, for the setting “CatS IC50”, the IC50 was determined as 290 nM.
Same read-out and setting: in the case of `C[C@H]1COCCN1CCCn1nc(-c2ccc(Cl)c(C#Cc3ccc(Cl)c(CNCc4ccccn4)c3)c2)c2c1CCN(C(=O)C(N)=O)C2` [Example 289, 2-(3-{4-Chloro-3-[(4-chloro-3-{[(pyridin-2-ylmethyl)amino]methyl}phenyl)ethynyl]phenyl}-1-{3-[(3S)-3-methylmorpholin-4-yl]propyl}-1,4,6,7-tetrahydro-5H-pyrazolo[4,3-c]pyridin-5-yl)-2-oxoacetamide] it was 10 nM; in that of `CS(=O)(=O)N1CCc2c(c(-c3ccc(Cl)c(C#Cc4cccc(CN)c4)c3)nn2CCCN2CCOCC2)C1` [Example 377, 1-[3-({2-Chloro-5-[5-(methylsulfonyl)-1-(3-morpholin-4-ylpropyl)-4,5,6,7-tetrahydro-1H-pyrazolo[4,3-c]pyridin-3-yl]phenyl}ethynyl)phenyl]methanamine], 470 nM.
Consider `CS(=O)(=O)N1CCc2c(c(-c3ccc(Cl)c(C#Cc4ccc(CO)cc4)c3)nn2CCCN2CCOCC2)C1` [Example 5, (4-{2-Chloro-5-[5-methanesulfonyl-1-(3-morpholin-4-yl-propyl)-4,5,6,7-tetrahydro-1H-pyrazolo[4,3-c]pyridin-3-yl]-phenylethynyl}-phenyl)-methanol], for which the IC50 stood at 290 nM.
Regarding `O=C(c1ccco1)N1CCc2c(c(-c3ccc(Cl)c(C#Cc4ccc(Cl)cc4)c3)nn2CCCN2CCOCC2)C1` [Example 138, [3-[4-Chloro-3-(4-chloro-phenylethynyl)-phenyl]-1-(3-morpholin-4-yl-propyl)-1,4,6,7-tetrahydro-pyrazolo[4,3-c]pyridin-5-yl]-furan-2-yl-methanone], for the setting “CatS IC50, Table 2, average of results obtained”, the IC50 came to 350 nM.
Regarding `CC(NCc1ccc(C#Cc2cc(-c3nn(CCCN4CCN(c5ccccc5)CC4)c4c3CN(S(C)(=O)=O)CC4)ccc2Cl)cc1)c1ccccc1` (centres unmarked) [Example 478, N-({4-[(2-Chloro-5-{5-(methylsulfonyl)-1-[3-(4-phenylpiperazin-1-yl)propyl]-4,5,6,7-tetrahydro-1H-pyrazolo[4,3-c]pyridin-3-yl}phenyl)ethynyl]phenyl}methyl)-1-phenylethanamine], the IC50 came to 40 nM.
On the same count and under the same terms, in the case of `C[C@H]1COCCN1C[C@H](O)Cn1nc(-c2ccc(Cl)c(C#Cc3ccc(CNCc4ccc(Cl)cc4)cc3)c2)c2c1CCN(C(N)=O)C2` [Example 257, 3-(4-Chloro-3-{4-[(4-chloro-benzylamino)-methyl]-phenylethynyl}-phenyl)-1-[(2S)-2-hydroxy-3-((3S)-3-methyl-morpholin-4-yl)-propyl]-1,4,6,7-tetrahydro-pyrazolo[4,3-c]pyridine-5-carboxylic acid amide] it was 70 nM.
On the same count and under the same terms, the same measure for `CS(=O)(=O)N1CCc2c(c(-c3ccc(Cl)c(CCc4cccc(O)c4)c3)nn2CCCN2CCOCC2)C1` [Example 56, 3-(2-{2-Chloro-5-[5-methanesulfonyl-1-(3-morpholin-4-yl-propyl)-4,5,6,7-tetrahydro-1H-pyrazolo[4,3-c]pyridin-3-yl]-phenyl}-ethyl)-phenol]: 910 nM; for `CS(=O)(=O)N1CCc2c(c(-c3ccc(Cl)c(C#Cc4ccc(CNCc5ccc(Cl)cc5)cc4)c3)nn2CCCN2CCN(c3ccccc3)CC2)C1` [Example 180, 1-{4-[(2-Chloro-5-{5-(methylsulfonyl)-1-[3-(4-phenylpiperazin-1-yl)propyl]-4,5,6,7-tetrahydro-1H-pyrazolo[4,3-c]pyridin-3-yl}phenyl)ethynyl]phenyl}-N-[(4-chlorophenyl)methyl]methanamine]: 20 nM.
The same measure, in the same setting: in the case of `CS(=O)(=O)N1CCc2c(c(-c3ccc(Cl)c(C#Cc4ccc(Cl)cc4)c3)nn2CC(O)CN2CCOCC2)C1` (centres unmarked) [Example 124, 1-{3-[4-Chloro-3-(4-chloro-phenylethynyl)-phenyl]-5-methanesulfonyl-4,5,6,7-tetrahydro-pyrazolo[4,3-c]pyridin-1-yl}-3-morpholin-4-yl-propan-2-ol] it was 150 nM; in that of `CS(=O)(=O)N1CCc2c(c(-c3ccc(Cl)c(C#CCNS(=O)(=O)c4ccccc4)c3)nn2CCCN2CCOCC2)C1` [Example 54, N-(3-{2-Chloro-5-[5-methanesulfonyl-1-(3-morpholin-4-yl-propyl)-4,5,6,7-tetrahydro-1H-pyrazolo[4,3-c]pyridin-3-yl]-phenyl]-prop-2-ynyl)-benzenesulfonamide], 7050 nM; in that of `CS(=O)(=O)N1CCc2c(c(-c3ccc(Cl)c(C#Cc4ccc5c(c4)CN[C@H](C(=O)O)C5)c3)nn2CCCN2CCOCC2)C1` [Example 199, (3S)-7-({2-Chloro-5-[5-(methylsulfonyl)-1-(3-morpholin-4-ylpropyl)-4,5,6,7-tetrahydro-1H-pyrazolo[4,3-c]pyridin-3-yl]phenyl}ethynyl)-1,2,3,4-tetrahydroisoquinoline-3-carboxylic acid], 60 nM.
On to `C[C@H]1COCCN1CCCn1nc(-c2ccc(Cl)c(C#Cc3ccc(CNCc4ccc(Cl)cc4)cc3)c2)c2c1CCN(C(=O)C(N)=O)C2` [Example 158, 2-[3-(4-Chloro-3-{[4-({[(4-chlorophenyl)methyl]amino}methyl)phenyl]ethynyl}phenyl)-1-{3-[(3S)-3-methylmorpholin-4-yl]propyl}-1,4,6,7-tetrahydro-5H-pyrazolo[4,3-c]pyridin-5-yl]-2-oxoacetamide], for which the IC50 came to 50 nM.
Same read-out and setting: in the case of `COC(=O)C1Cc2cc(C#Cc3cc(-c4nn(CCCN5CCOCC5)c5c4CN(S(C)(=O)=O)CC5)ccc3Cl)ccc2CN1` (centres unmarked) [Example 205, Methyl 6-({2-chloro-5-[5-(methylsulfonyl)-1-(3-morpholin-4-ylpropyl)-4,5,6,7-tetrahydro-1H-pyrazolo[4,3-c]pyridin-3-yl]phenyl}ethynyl)-1,2,3,4-tetrahydroisoquinoline-3-carboxylate] it was 270 nM; in that of `COc1ccc(S(=O)(=O)NCCCc2cc(-c3nn(CCCN4CCOCC4)c4c3CN(S(C)(=O)=O)CC4)ccc2Cl)cc1` [Example 85, N-(3-{2-Chloro-5-[5-methanesulfonyl-1-(3-morpholin-4-yl-propyl)-4,5,6,7-tetrahydro-1H-pyrazolo[4,3-c]pyridin-3-yl]-phenyl}-propyl)-4-methoxy-benzenesulfonamide], 8930 nM.
Consider `CS(=O)(=O)N1CCc2c(c(-c3ccc(Cl)c(C#Cc4ccccc4CNCc4ccccc4)c3)nn2CCCN2CCOCC2)C1` [Example 386, 1-[2-({2-Chloro-5-[5-(methylsulfonyl)-1-(3-morpholin-4-ylpropyl)-4,5,6,7-tetrahydro-1H-pyrazolo[4,3-c]pyridin-3-yl]phenyl}ethynyl)phenyl]-N-(phenylmethyl)methanamine], for which, where the note is “CatS IC50”, the IC50 is 770 nM.
Same read-out and setting: in the case of `C[C@H]1COCCN1CCCn1nc(-c2ccc(Cl)c(C#Cc3ccc(CNCc4ccco4)cc3)c2)c2c1CCN(S(C)(=O)=O)C2` [Example 432, 1-[4-({2-Chloro-5-[1-{3-[(3S)-3-methylmorpholin-4-yl]propyl}-5-(methylsulfonyl)-4,5,6,7-tetrahydro-1H-pyrazolo[4,3-c]pyridin-3-yl]phenyl}ethynyl)phenyl]-N-(furan-2-ylmethyl)methanamine] it was 230 nM; in that of `CS(=O)(=O)N1CCc2c(c(-c3ccc(Cl)c(C#Cc4ccc(Cl)c(CN5CCOCC5)c4)c3)nn2CCCN2CCCCC2)C1` [Example 604, 3-(4-Chloro-3-{[4-chloro-3-(morpholin-4-ylmethyl)phenyl]ethynyl}phenyl)-5-(methylsulfonyl)-1-(3-piperidin-1-ylpropyl)-4,5,6,7-tetrahydro-1H-pyrazolo[4,3-c]pyridine], 80 nM.
With `CNCc1ccc(C#Cc2cc(-c3nn(CCCN4CCOCC4)c4c3CN(S(C)(=O)=O)CC4)ccc2Cl)cc1` [Example 315, 1-[4-({2-Chloro-5-[5-(methylsulfonyl)-1-(3-morpholin-4-ylpropyl)-4,5,6,7-tetrahydro-1H-pyrazolo[4,3-c]pyridin-3-yl]phenyl}ethynyl)phenyl]-N-methylmethanamine], the IC50 is 1360 nM.
Take `C[C@@H]1COCCN1CCCn1nc(-c2ccc(Cl)c(C#Cc3ccc(Cl)c(CNCCCO)c3)c2)c2c1CCN(C(N)=O)C2` [Example 222, 3-(4-Chloro-3-{4-chloro-3-[(3-hydroxy-propylamino)-methyl]-phenylethynyl}-phenyl)-1-[3-(3-methyl-morpholin-4-yl)-propyl]-1,4,6,7-tetrahydro-pyrazolo[4,3-c]pyridine-5-carboxylic acid amide]: where the note is “CatS IC50”, the IC50 worked out at 20 nM.
As to `CS(=O)(=O)N1CCc2c(c(-c3ccc(Cl)c(C#Cc4ccc5c(c4)CNCC5)c3)nn2CCCN2CCC(C(N)=O)CC2)C1` [Example 135, 1-(3-{3-[4-Chloro-3-(1,2,3,4-tetrahydro-isoquinolin-7-ylethynyl)-phenyl]-5-methanesulfonyl-4,5,6,7-tetrahydro-pyrazolo[4,3-c]pyridin-1-yl}-propyl)-piperidine-4-carboxylic acid amide], the IC50 was 60 nM.
